Experimental findings from a melting point compilation (Tetko et al.) are described below.

A value given as a limit tells only on which side of the number the result lay.

One may read the melting point as the temperature, or range, at which the solid turns liquid.

With `OC1CCC(Cl)CC1` (stereo unspecified), the melting point was 82.5 °C.
The same measure for `Cc1nsc(-c2ccccc2)n1`: 50 to 52 °C; for `CC(NC(=O)CCCCNC(=O)C12CC3CC(CC(C3)C1)C2)[P+]([O-])(Oc1ccccc1)Oc1ccccc1` (stereo unspecified): 150 °C.
As to `O=[N+]([O-])c1ccc(-c2nnc(NC3=NCCN3)s2)cc1`, the melting point fell in the range of 239 to 241 °C.
`Nc1nc(S)nc(S)n1` displayed a melting point of 300 °C.
For `Cc1ccc(C(=O)C2=NOC3C(=O)N(c4ccc(C(=O)O)cc4)C(=O)C23)cc1` (stereo unspecified) the value was 201 °C; for `O=C1OC(c2ccccc2)=NC1=Cc1ccc([N+](=O)[O-])cc1`, 214 to 215 °C.
Take `COc1ccc(CC2NCC(O)C2OC(C)=O)cc1` (stereo unspecified): the melting point is 141 °C.
Molecule `CCOc1cccc(F)c1` displayed a melting point of -27.5 °C.
The same measure for `COc1ccc(C2CNC(=O)C2)cc1OC1CCCC1` (stereo unspecified): 127 to 133 °C; for `N#Cc1ccc(C(c2ccc(C#N)cc2)n2cncn2)cc1`: 181 °C; for `COc1ccc(C)cc1S(=O)(=O)Cl`: 82 to 84 °C.
For `C=Cc1c(Cl)cccc1Cl`, the melting point was determined as 89 °C.
For `CC(C)c1cc(C(C)C)c(S(=O)(=O)n2cncn2)c(C(C)C)c1`, the melting point turned out to be 111 °C.
`CC(Oc1cc(Cl)c(Cl)cc1Cl)C(=O)O` (stereo unspecified) displayed a melting point of 182 °C.
As to `COc1ccc(C(=O)CCCCl)cc1`, the melting point came to 32 °C.
Regarding `CCCCCCCCC(=O)OCCCC`, the melting point is -38 °C.
As to `CCc1cccc(CC)c1N`, the melting point turned out to be 3.5 °C.
The molecule `CC(=O)CSc1ccc(C)cc1` came in with a melting point of 96 to 98 °C.
`COc1ccc(N=C=S)c(OC)c1` showed a melting point of 52 °C.
On to `O=C(O)CCc1ccc(CCC(=O)O)cc1`, for which the melting point lay within 229 to 233 °C.
The same measure for `CCCCCCCl`: -94 °C; for `Cc1ccc(-c2ccccc2)s1`: 47.5 °C; for `CCN(CC)CCNc1ccc(C)c2sc3ccccc3c(=O)c12`: 64.5 °C.
`Cc1ccc(O)c(C(C)C)c1` registered a melting point of 36.5 °C.
With `CNC(=NCCSCc1nc[nH]c1C)NC#N`, the melting point was determined as 141 °C.
For `O=C(Cl)C1=Cc2ccccc2OC1`, the melting point is 70 to 73 °C.
As to `O=C(Nc1ccccc1)c1cccc2c(Br)cccc12`, the melting point was 217 °C.
Take `COC(=O)C1=C(C)NC(=O)N(C=O)C1c1ccccc1` (stereo unspecified): the melting point came out at 236 °C.
The same measure for `Cc1nc(C2CCN(C(=O)OC(C)(C)C)CC2)sc1C(=O)O`: 124 to 128 °C; for `O=Cc1ccc2c(c1)OCCO2`: 52 to 53 °C.
The molecule `O=C(Oc1c(F)c(F)c(F)c(F)c1F)c1ccnc(N2CCSCC2)c1` showed a melting point of 99 to 100 °C.
`O=C(O)c1cc2cc3c4c(c2oc1=O)CCCN4CCC3` gave a melting point of 240 °C.
Molecule `COC(=O)c1cscc1OC` showed a melting point of 70 to 71 °C.
Turning to `c1ccc(-c2cc(N3CCCC3)cc(N3CCCC3)c2)cc1`, the melting point came out at 174 °C.
For `CC12CCCCC1CCC1C2CCC2(C)C1CCC2(O)C#CCl` (stereo unspecified), the melting point stood at 163 °C.
Molecule `CCOC(=O)c1c(N)sc2c1CCCCC2` showed a melting point of 89 to 90 °C.
`COc1ccc(CCl)cc1` displayed a melting point of 24.5 °C.
Turning to `CC(C)=NNc1ccccc1`, the melting point amounted to 42 °C.
`O=C(O)CSCC(=O)O` displayed a melting point of 129 °C.
For `Fc1ccc(C2CCNCC2COc2ccc3c(c2)OCO3)cc1` (stereo unspecified), the melting point is 130 °C.
Consider `Cc1nc(NC(=O)NS(=O)(=O)c2cccs2)nc(O)c1C`, for which the melting point was 219 to 221 °C.
Turning to `CC(=O)C1CC1`, the melting point is -68.3 °C.
`NNc1ncc(C(F)(F)F)cc1Cl`: the melting point was in the range of 90 to 92 °C.
For the molecule `COc1ccccc1C(C)O` (racemic), the melting point was in the range of 37 to 39 °C.
As for `FC(Cl)=C(F)Cl`, the melting point was -130 °C.
The same measure for `CC(=Nc1cccc(N)c1)c1c(O)c2ccccc2n(-c2ccccc2)c1=O`: 200 °C; for `CC(=NO)C(C)(C)O`: 85 °C.
For `COS(=O)(=O)c1cc([N+](=O)[O-])ccc1C=Cc1ccc([N+](=O)[O-])cc1S(=O)(=O)OC` the value was 228 °C; for `COCCCNc1nc(NCCCOC)nc(SC)n1`, 55 °C.
In the case of `O=C(O)C=Cc1cccc(C(Br)=C(Br)C(=O)O)c1`, the melting point amounted to 214 °C.
The molecule `Cc1nnc2sc(SCc3ccc(Cl)cc3)nn2c1=O` showed a melting point of 171 to 172 °C.
`CC(=O)Nc1ccc2c(c1)CCCC2=O` came in with a melting point of 127 to 129 °C.
`CCOC=C(C#N)S(=O)(=O)C(C)(C)C` showed a melting point of 103 to 105 °C.
`Clc1ncnc2ccsc12` came in with a melting point of 125 to 126 °C.
For the molecule `O=C(c1ccccc1)c1c(-c2ccccc2)n(C(=O)c2ccccc2)c2cc([N+](=O)[O-])ccc12`, the melting point stood at 204 °C.
The same measure for `COc1ccc(-c2noc(C)c2C(=O)Cl)cc1`: 79 to 81 °C; for `c1ccc(-c2ccc3ccccc3c2)cc1`: 104 °C; for `C=CC(=O)NC(C)C`: 64 °C.
As for `Oc1ccc(-n2ccnc2)cc1`, the melting point fell in the range of 204 to 206 °C.
For `O=C=NS(=O)(=O)Cl` the value was -44 °C.
The same measure for `Brc1n[nH]c2nc3ccccc3nc12`: 273 to 276 °C; for `CC1=CCC/C1=N\Nc1ccc([N+](=O)[O-])cc1[N+](=O)[O-]`: 222 °C.
`NNC(=O)c1cc(OCC(F)(F)F)ccc1OCC(F)(F)F` displayed a melting point of 86 to 88 °C.
As for `O=C(O)c1cc(Cl)ccc1C(F)(F)F`, the melting point was found to be 86 °C.
Consider `O=[N+]([O-])c1ccc(NN=C(Cc2ccccc2)C(Cc2ccccc2)=NNc2ccc([N+](=O)[O-])cc2)cc1`, for which the melting point is 276 °C.
Turning to `C/C=C(\C)c1ccccc1`, the melting point is -23.5 °C.
In turn, `CN(C)c1ccc(C2CC(c3ccc4ccccc4c3)=NN2c2ccccc2)cc1` (stereo unspecified) showed a melting point of 186 °C.
`CN(C)c1ccc(N)c([N+](=O)[O-])c1` displayed a melting point of 119 to 124 °C.
For `O=C(O)c1cc(I)ccc1Br`, the melting point turned out to be 175 °C.
The same measure for `O=C(O)c1ccc(Br)o1`: 190 °C; for `CC(C)Cn1cnc2c(N)nc3ccccc3c21`: 293 °C; for `Clc1ccc2c(c1)N=C(N1CCN(C3=Nc4cc(Cl)ccc4Nc4ccccc43)CC1)c1ccccc1N2`: 333 to 335 °C.
For the molecule `O=S(=O)(Cl)c1cc(C(F)(F)F)ccc1N1CCOCC1`, the melting point was 81.5 to 84 °C.
For the molecule `C=CC(C)(O)CCC=C(C)C` (stereo unspecified), the melting point is below 25 °C.
`Oc1ccc(O)c2ccccc12` yielded a melting point of 188 to 192 °C.
The molecule `CC(C)(C)Oc1ccc(O)cc1` displayed a melting point of 152 °C.
For `CCOC(=O)c1c[nH]nc1C(F)(F)F`, the melting point was in the range of 145 to 148 °C.
Consider `CC1CCC(O)CC1=CC=C1CCCC2(C)C1CCC2C(C)C=CC(C)C(C)C` (stereo unspecified), for which the melting point is 126 °C.
`Nc1ccc(Br)cn1` had a melting point of 138 °C.
Turning to `O=C1CCCN1c1ccc(F)cc1`, the melting point lay within 55 to 58 °C.
Take `Cc1nc(-c2ccccn2)nc(O)c1Cl`: the melting point fell in the range of 142 to 144 °C.
`Oc1noc2nc3ccccc3nc12` had a melting point of 320 to 325 °C.
`O=C1Cc2cccc3cccc1c23` came in with a melting point of 121 °C.
As to `Nc1ccncc1Cl`, the melting point is 51 °C.
In turn, `CC(=O)C1CCC2C3CCC4CC(=O)CCC4(C)C3CCC12C` (stereo unspecified) registered a melting point of 200 °C.
`CC(C)c1cccc(C(C)C)c1N` returned a melting point of -45 °C.
For `Cc1csc(C(=O)Cl)c1Cl` the value was 57 to 58 °C; for `CN(C)CCC#N`, -43 °C; for `CCCCCC(N)=O`, 101 °C.
The same measure for `O=C(O)c1ccc2c(c1)OC(F)(F)O2`: 156 °C; for `Cc1cccnc1C#N`: 86 °C; for `O=C=Nc1ccc2c(c1)OCCOCCOCCOCCO2`: 35 to 39 °C.
In turn, `O=C(Cl)c1cnn2ccccc12` showed a melting point of 116 to 118 °C.
For `O=C(Cl)OCC1=Cc2ccccc2S1(=O)=O` the value was 77 °C.
Take `Cc1c(Cl)cccc1Nc1ccccc1C(=O)O`: the melting point stood at 207 °C.
For `Cc1ccc2cc3c(cc2n1)CCC(C)N3C(=O)c1ccccc1` (stereo unspecified) the value was 155 °C; for `CCCC(C)I` (stereo unspecified), -50 °C.
For the molecule `OCCCCCCCCCCCl`, the melting point worked out at 12.5 °C.
In turn, `COc1cc(OC(C)=O)c2c(=O)c(O[C@@H]3O[C@H](COC(C)=O)[C@H](OC(C)=O)[C@H](OC(C)=O)[C@@H]3O[C@@H]3O[C@H](C)[C@H](OC(C)=O)[C@H](OC(C)=O)[C@@H]3OC(C)=O)c(-c3ccc(OC(C)=O)cc3)oc2c1` showed a melting point of 118 to 120 °C.
The molecule `O=C1c2ccc(O)cc2OC(c2ccc(O)c(O)c2)C1O` (stereo unspecified) came in with a melting point of 227 °C.
On to `COC(=O)c1ccc(C=CC(=O)c2ccccc2)cc1`, for which the melting point fell in the range of 119 to 120 °C.
For the molecule `Nc1c(Br)cccc1Br`, the melting point worked out at 87.5 °C.
Consider `COC(=O)C1Cc2c3c(c4c(c2CC1C(=O)OC)CC(C(=O)OC)C(C(=O)OC)C4)CC(C(=O)OC)C(C(=O)OC)C3` (stereo unspecified), for which the melting point is 261 to 263 °C.
Consider `O=C(O)C(F)F`, for which the melting point is -1 °C.
For the molecule `Cc1ccc(C(=O)CCC(=O)O)cc1`, the melting point amounted to 129 °C.
With `Cc1c(N)cccc1C(=O)O`, the melting point came to 187 °C.
In turn, `CCCCCCCCCCCCCCCCCCCO` gave a melting point of 63.3 °C.
The same measure for `CCCCCCCCOc1ccc(C(=O)OC)cc1`: 35 °C; for `CC(=NNc1nc(C)cc(C)n1)c1ccccc1C`: 176 °C.
The same measure for `CCOC(=O)c1c(-c2ccccc2)csc1NC(=O)c1ccc(Cl)cc1`: 171 to 172 °C.
